How the values were obtained:
[1] = Absorbance and fluorescence maximum wavelengths and quantum yields of the CyNA library; assay type: physicochemical; conditions: for λabs, absorbance maximum wavelength / λem, fluorescence maximum wavelength: CyNA library; for φ, quantum yield: in DMSO, Cardiogreen as standard
Method: Since the k values of the different CyNA compounds indicated some dependency on the chemical structure of the amine, the CyNA scaffold was derivatized with a broad range of primary amines (FIGS. 4A-4C). The fluorescence properties of the 80-member CyNA library were measured. The absorption maximum wavelengths ranged from 802 nm to 806 nm, emission maximum wavelengths ranged from 817 nm to 823 nm, and the average quantum yield was approximately 0.10 (Table 2).
All the chemicals (building block amines plus others) and solvents were purchased from Sigma Aldrich, Alfa Aesar, Fluka, MERCK or Acros, and used without further purification. ^1H-NMR and ^13C-NMR spectra were recorded on Bruker Avance 300 NMR and 500 NMR spectrometers, and chemical shifts are expressed in parts per million (ppm). High-resolution mass spectrometry (HRMS) data was recorded on a Micromass VG 7035. Photobleaching experiments were performed using a UVP Blak-Ray® B-100AP high intensity UV lamp (100 W, 365 nm) Spectroscopic and quantum yield data were measured on a SpectraMax M2 spectrophotometer (Molecular Devices), and the data analysis was performed using GraphPrism 5.0. Photobleaching measurements were performed using an Eclipse Ti-U Nikon microscope (filter cube: 750/800) attached to Ti:sappire oscillator that operated in continuous wave mode, and the data was processed using the software NIS-Elements 3.10. In vivo images were taken in an IVIS Spectrum imaging system (Caliper Life Sciences).

[2] = Primary screening of photostability of the CyNA library (time-course fluorescence, 8 h); assay type: physicochemical; design: F/Fo, fluorescent intensity at 8 hours vs 0 hours: unit: %; conditions: 10 μM in HEPES 100 mM pH 7.4, 2% DMSO
Method: As a primary evaluation of photo stability, the decrease in fluorescence intensity of the 80 CyNA compounds was measured (see Table 2). The average decrease in fluorescence intensity after 8 hours of irradiation by a xenon lamp was approximately 18%. A subset of the most photostable compounds (i.e., F/Fo reported in Table 2 was greater than or equal to 95) was examined under stronger irradiation in various buffers.
10-μM CyNA solutions in 100 mM HEPES buffer (pH 7.4) containing 2% DMSO were placed in a 96-well black plate, and fluorescence intensity measurements were recorded every 10 minutes for a total period of 8 hours (excitation-emission: 790-820 nm). A subset of fourteen compounds selected according to their F8h/Fo quotients, quantum yields and maximum relative fluorescence units (RFU) values was further evaluated in a secondary screening

With CCCN1/C(=C/C=C2\CCCC(/C=C/C3=[N+](CCC)c4ccccc4C3(C)C)=C2N(CCCOC(C)C)C(C)=O)C(C)(C)c2ccccc21 [CyNA-274] the “λabs, absorbance maximum wavelength” value [1] was 805 nm, the “λem, fluorescence maximum wavelength” value [1] was 820 nm and the “φ, quantum yield” value [1] was 0.12. For the same molecule, the “F/Fo, fluorescent intensity at 8 hours vs 0 hours” value (“F/Fo … vs 0 hours” for short) [2] was 99 and the “max RFU, maximum relative fluorescence units” value [2] was 1209.5.
With CCCCN(C(C)=O)C1=C(/C=C/C2=[N+](CCC)c3ccccc3C2(C)C)CCC/C1=C\C=C1\N(CCC)c2ccccc2C1(C)C [CyNA-373] the “λabs, absorbance maximum wavelength” value [1] was 805 nm, the “λem, fluorescence maximum wavelength” value [1] was 820 nm and the “φ, quantum yield” value [1] was 0.07. For the same molecule, the “F/Fo … vs 0 hours” value [2] was 76 and the “max RFU, maximum relative fluorescence units” value [2] was 567.2.
With CCCN1/C(=C/C=C2\CCCC(/C=C/C3=[N+](CCC)c4ccccc4C3(C)C)=C2N(CCCCc2ccccc2)C(C)=O)C(C)(C)c2ccccc21 [CyNA-131] the “λabs, absorbance maximum wavelength” value [1] was 804 nm, the “λem, fluorescence maximum wavelength” value [1] was 819 nm and the “φ, quantum yield” value [1] was 0.13. For the same molecule, the “max RFU, maximum relative fluorescence units” value [2] was 259.8.
With CCCN1/C(=C/C=C2\CCCC(/C=C/C3=[N+](CCC)c4ccccc4C3(C)C)=C2N(CCCOCC)C(C)=O)C(C)(C)c2ccccc21 [CyNA-167] the “λabs, absorbance maximum wavelength” value [1] was 804 nm, the “λem, fluorescence maximum wavelength” value [1] was 818 nm and the “φ, quantum yield” value [1] was 0.10. The “F/Fo … vs 0 hours” value [2] was 92 and the “max RFU, maximum relative fluorescence units” value [2] was 1031.8.
For CCCN1/C(=C/C=C2\CCCC(/C=C/C3=[N+](CCC)c4ccccc4C3(C)C)=C2N(Cc2ccccn2)C(C)=O)C(C)(C)c2ccccc21 [CyNA-401], the “λabs, absorbance maximum wavelength” value [1] was 805 nm, the “λem, fluorescence maximum wavelength” value [1] was 820 nm and the “φ, quantum yield” value [1] was 0.10. For the same molecule, the “F/Fo … vs 0 hours” value [2] was 91 and the “max RFU, maximum relative fluorescence units” value [2] was 856.5.
With CCCN1/C(=C/C=C2\CCCC(/C=C/C3=[N+](CCC)c4ccccc4C3(C)C)=C2N(C(C)=O)C(C)CCc2ccccc2)C(C)(C)c2ccccc21 (stereo not drawn) [CyNA-275] the “λabs, absorbance maximum wavelength” value [1] was 804 nm, the “λem, fluorescence maximum wavelength” value [1] was 817 nm and the “φ, quantum yield” value [1] was 0.14. For the same molecule, the “F/Fo … vs 0 hours” value [2] was 62 and the “max RFU, maximum relative fluorescence units” value [2] was 679.8.
In the case of CCCN1/C(=C/C=C2\CCCC(/C=C/C3=[N+](CCC)c4ccccc4C3(C)C)=C2N(Cc2c(OC)cc(OC)cc2OC)C(C)=O)C(C)(C)c2ccccc21 [CyNA-336], the “λabs, absorbance maximum wavelength” value [1] is reported as 804 nm, the “λem, fluorescence maximum wavelength” value [1] is reported as 820 nm and the “φ, quantum yield” value [1] is reported as 0.11. The “F/Fo … vs 0 hours” value [2] was 85 and the “max RFU, maximum relative fluorescence units” value [2] was 827.7.
With CCCN1/C(=C/C=C2\CCCC(/C=C/C3=[N+](CCC)c4ccccc4C3(C)C)=C2N(Cc2ccc(F)cc2F)C(C)=O)C(C)(C)c2ccccc21 [CyNA-399] the “λabs, absorbance maximum wavelength” value [1] was 804 nm, the “λem, fluorescence maximum wavelength” value [1] was 819 nm and the “φ, quantum yield” value [1] was 0.10. The “F/Fo … vs 0 hours” value [2] was 95 and the “max RFU, maximum relative fluorescence units” value [2] was 775.5.
For CCCCCN(C(C)=O)C1=C(/C=C/C2=[N+](CCC)c3ccccc3C2(C)C)CCC/C1=C\C=C1\N(CCC)c2ccccc2C1(C)C [CyNA-419], the “λabs, absorbance maximum wavelength” value [1] was 804 nm, the “λem, fluorescence maximum wavelength” value [1] was 820 nm and the “φ, quantum yield” value [1] was 0.13. The “F/Fo … vs 0 hours” value [2] was 91 and the “max RFU, maximum relative fluorescence units” value [2] was 835.2.
In the case of CCCN1/C(=C/C=C2\CCCC(/C=C/C3=[N+](CCC)c4ccccc4C3(C)C)=C2N(CCc2ccc(O)cc2)C(C)=O)C(C)(C)c2ccccc21 [CyNA-346], the “λabs, absorbance maximum wavelength” value [1] is reported as 804 nm, the “λem, fluorescence maximum wavelength” value [1] is reported as 822 nm and the “φ, quantum yield” value [1] is reported as 0.07. For the same molecule, the “F/Fo … vs 0 hours” value [2] was 69 and the “max RFU, maximum relative fluorescence units” value [2] was 434.2.
With CCCN1/C(=C/C=C2\CCCC(/C=C/C3=[N+](CCC)c4ccccc4C3(C)C)=C2N(CCc2ccc(OC)cc2)C(C)=O)C(C)(C)c2ccccc21 [CyNA-395] the “λabs, absorbance maximum wavelength” value [1] was 804 nm, the “λem, fluorescence maximum wavelength” value [1] was 820 nm and the “φ, quantum yield” value [1] was 0.07. For the same molecule, the “F/Fo … vs 0 hours” value [2] was 95 and the “max RFU, maximum relative fluorescence units” value [2] was 234.3.
For CCCCC(CC)CN(C(C)=O)C1=C(/C=C/C2=[N+](CCC)c3ccccc3C2(C)C)CCC/C1=C\C=C1\N(CCC)c2ccccc2C1(C)C (stereo not drawn) [CyNA-230], the “λabs, absorbance maximum wavelength” value [1] was 805 nm, the “λem, fluorescence maximum wavelength” value [1] was 822 nm and the “φ, quantum yield” value [1] was 0.09. The “F/Fo … vs 0 hours” value [2] was 80 and the “max RFU, maximum relative fluorescence units” value [2] was 77.7.
In the case of CCCN1/C(=C/C=C2\CCCC(/C=C/C3=[N+](CCC)c4ccccc4C3(C)C)=C2N(CCC(C)(C)C)C(C)=O)C(C)(C)c2ccccc21 [CyNA-92], the “λabs, absorbance maximum wavelength” value [1] is reported as 805 nm, the “λem, fluorescence maximum wavelength” value [1] is reported as 821 nm and the “φ, quantum yield” value [1] is reported as 0.09. The “F/Fo … vs 0 hours” value [2] was 64 and the “max RFU, maximum relative fluorescence units” value [2] was 420.2.
In the case of CCCN1/C(=C/C=C2\CCCC(/C=C/C3=[N+](CCC)c4ccccc4C3(C)C)=C2N(Cc2ccc(OC)cc2OC)C(C)=O)C(C)(C)c2ccccc21 [CyNA-181], the “λabs, absorbance maximum wavelength” value [1] is reported as 805 nm, the “λem, fluorescence maximum wavelength” value [1] is reported as 821 nm and the “φ, quantum yield” value [1] is reported as 0.14. The “F/Fo … vs 0 hours” value [2] was 66 and the “max RFU, maximum relative fluorescence units” value [2] was 996.8.
In the case of CCCCCCCCCCCN(C(C)=O)C1=C(/C=C/C2=[N+](CCC)c3ccccc3C2(C)C)CCC/C1=C\C=C1\N(CCC)c2ccccc2C1(C)C [CyNA-567], the “λabs, absorbance maximum wavelength” value [1] is reported as 805 nm, the “λem, fluorescence maximum wavelength” value [1] is reported as 820 nm and the “φ, quantum yield” value [1] is reported as 0.14. The “F/Fo … vs 0 hours” value [2] was 100 and the “max RFU, maximum relative fluorescence units” value [2] was 279.2.
In the case of CCCN1/C(=C/C=C2\CCCC(/C=C/C3=[N+](CCC)c4ccccc4C3(C)C)=C2N(CCCc2ccccc2)C(C)=O)C(C)(C)c2ccccc21 [CyNA-335], the “λabs, absorbance maximum wavelength” value [1] is reported as 804 nm, the “λem, fluorescence maximum wavelength” value [1] is reported as 821 nm and the “φ, quantum yield” value [1] is reported as 0.06. The “F/Fo … vs 0 hours” value [2] was 50 and the “max RFU, maximum relative fluorescence units” value [2] was 167.9.
With CCCN1/C(=C/C=C2\CCCC(/C=C/C3=[N+](CCC)c4ccccc4C3(C)C)=C2N(CC(C)C)C(C)=O)C(C)(C)c2ccccc21 [CyNA-487] the “λabs, absorbance maximum wavelength” value [1] was 806 nm, the “λem, fluorescence maximum wavelength” value [1] was 823 nm and the “φ, quantum yield” value [1] was 0.04. For the same molecule, the “F/Fo … vs 0 hours” value [2] was 30 and the “max RFU, maximum relative fluorescence units” value [2] was 45.3.
With CCCN1/C(=C/C=C2\CCCC(/C=C/C3=[N+](CCC)c4ccccc4C3(C)C)=C2N(CC(C)CC)C(C)=O)C(C)(C)c2ccccc21 (stereo not drawn) [CyNA-574] the “λabs, absorbance maximum wavelength” value [1] was 803 nm, the “λem, fluorescence maximum wavelength” value [1] was 818 nm and the “φ, quantum yield” value [1] was 0.06. The “F/Fo … vs 0 hours” value [2] was 38 and the “max RFU, maximum relative fluorescence units” value [2] was 321.1.
In the case of CCCN1/C(=C/C=C2\CCCC(/C=C/C3=[N+](CCC)c4ccccc4C3(C)C)=C2N(CCCN2CCCC2=O)C(C)=O)C(C)(C)c2ccccc21 [CyNA-11], the “λabs, absorbance maximum wavelength” value [1] is reported as 802 nm, the “λem, fluorescence maximum wavelength” value [1] is reported as 820 nm and the “φ, quantum yield” value [1] is reported as 0.11. The “F/Fo … vs 0 hours” value [2] was 90 and the “max RFU, maximum relative fluorescence units” value [2] was 1250.1.
For CCCN1/C(=C/C=C2\CCCC(/C=C/C3=[N+](CCC)c4ccccc4C3(C)C)=C2N(CCC(C)C)C(C)=O)C(C)(C)c2ccccc21 [CyNA-442], the “λabs, absorbance maximum wavelength” value [1] was 806 nm, the “λem, fluorescence maximum wavelength” value [1] was 822 nm and the “φ, quantum yield” value [1] was 0.07. The “F/Fo … vs 0 hours” value [2] was 54 and the “max RFU, maximum relative fluorescence units” value [2] was 424.2.
For CCCN1/C(=C/C=C2\CCCC(/C=C/C3=[N+](CCC)c4ccccc4C3(C)C)=C2N(CCc2ccc(C)cc2)C(C)=O)C(C)(C)c2ccccc21.[I-] [CyNA-478], the “λabs, absorbance maximum wavelength” value [1] was 805 nm, the “λem, fluorescence maximum wavelength” value [1] was 821 nm and the “φ, quantum yield” value [1] was 0.09. For the same molecule, the “F/Fo … vs 0 hours” value [2] was 64 and the “max RFU, maximum relative fluorescence units” value [2] was 121.6.
With CCCN1/C(=C/C=C2\CCCC(/C=C/C3=[N+](CCC)c4ccccc4C3(C)C)=C2N(Cc2ccccc2Br)C(C)=O)C(C)(C)c2ccccc21 [CyNA-329] the “λabs, absorbance maximum wavelength” value [1] was 806 nm, the “λem, fluorescence maximum wavelength” value [1] was 821 nm and the “φ, quantum yield” value [1] was 0.10. For the same molecule, the “F/Fo … vs 0 hours” value [2] was 99 and the “max RFU, maximum relative fluorescence units” value [2] was 348.8.
In the case of CCCN1/C(=C/C=C2\CCCC(/C=C/C3=[N+](CCC)c4ccccc4C3(C)C)=C2N(CCN2CCOCC2)C(C)=O)C(C)(C)c2ccccc21 [CyNA-282], the “λabs, absorbance maximum wavelength” value [1] is reported as 805 nm, the “λem, fluorescence maximum wavelength” value [1] is reported as 819 nm and the “φ, quantum yield” value [1] is reported as 0.09. For the same molecule, the “F/Fo … vs 0 hours” value [2] was 90 and the “max RFU, maximum relative fluorescence units” value [2] was 820.1.

From patent US9201014B2, “Development of photostable near-IR cyanine dyes for in vivo imaging” (National University of Singapore, priority 2010, dated 2015)
